Key:
[1] = system: fecal suspension from the selected donor; experiment: Intestinal batch fermentation, SCFA production (first set); type: cell-based, human; details: 5× dose; after 48 h fermentation; vs corresponding control
Procedure: In a first set of in vitro experiments at the start of intestinal batch fermentation incubation, all test ingredients were added from stock solutions to the modified nutritional medium, containing (g/l): 2.5 K2HPO4, 10.9 KH2PO4, 2 NaHCO3, 2 yeast extract, 2 peptone, 1 mucin, 0.5 cysteine, 2 Tween 80, 2 glucose, 2 starch, 2 cellobiose, 0.1 NaCl, 0.01 MgSO4·7H2O, 0.01 CaCl2·6H2O, 0.05 hemin, 0.5 bile salts.
The other compounds were prepared in ethanol: • Vitamin K1 (VK1), • MEG-3 0080 EE Oil (MEG-3 0080 EE), • MEG-3 4535 EE Oil (MEG-3 4535 EE), • MEG-3 8000 EE Oil (MEG-3 8000 EE).
(§1) Since ethanol is known to have antimicrobial effects, two blanks for each type of stock solution were included. As a source of the microbial community, a freshly prepared fecal suspension from the selected donor was added to the reactors. […] All tests, except the blanks, were performed in single repetition, resulting in 40 independent incubations, as specified in Table 1. Incubation conditions of the pre-screening experiment and the final experiment were 48 h at 37° C., under shaking (90 rpm) and anaerobic conditions. DNA were extracted from effluent samples collected from each fermentation flask before (0 h fermentation) and after fermentation (24 h fermentation) and use for microbiome composition analysis by Shotgun sequencing. Effluent samples were collected from each fermentation flask before (0 h fermentation) and after fermentation (48 h fermentation), sterilized by filtering through 0.22 μm filters and used for short chain fatty acids (SCFA), quantification of immunological biomarkers and in vitro analysis in cell culture systems.
Short chain fatty acids (SCFA) are an assessment of the microbial carbohydrate metabolism (acetate, propionate and butyrate) or protein metabolism (branched SCFA) and can be compared to typical fermentation patterns for normal GI microbiota. Samples for SCFA analysis were analyzed after 0, 6, 24 and 48 h of incubation for both set of in vitro experiments, above.
SCFA were extracted from the samples with diethyl ether, after the addition of 2-methyl hexanoic acid as an internal standard. Extracts were analysed using a GC-2014 gas chromatograph (Shimadzu's-Hertogenbosch, the Nether-lands), equipped with a capillary fatty acid-free EC-1000Econo-Cap column (dimensions: […]×0.53 mm, film thickness […]; Alltech, Laarne, Belgium), a flame ionization detector and a split injector. The injection volume was […] and the temperature profile was set from 110 to 160° C., with a temperature increase of 6° C. min-1. The carrier gas was nitrogen and the temperature of the injector and detector were […] and 220° C., respectively. The production of unbranched and branched SCFA was calculated by summing the molar concentrations of acetate, propionate, butyrate, valerate and caproate, and summing isobutyrate, isovalerate and isocaproate molar concentrations, respectively. The total SCFA production was defined as the sum of unbranched and branched SCFA.

[2] = system: Co-cultures of Caco-2 and HT29-MTX-E12 cells; experiment: Barrier integrity (TEER), healthy gut model; type: cell-based; details: 48 h minus 0 h fermentation samples, vs corresponding control
Procedure: (§5) Co-cultures of Caco-2 and HT29-MTX-E12 cells were used to assess the protective effect of the supernatants before (0 h) and after fermentation (48 h) for both sets of in vitro experiments above.
(§6) CaCo-2 ECACC 86010202 and HT29-MTX-E12 ECACC 12040401 cells (both from European Collection of Cell Cultures, Salisbury, UK) were both cultured at 37° C., in atmosphere of 5% CO2 in DMEM medium supplemented with 4.5 g/L D-Glucose, 4 mM L-Glutamine, 1 mM Sodium Pyruvate, 1% MEM Non-Essential Amino Acids, 50 μg/mL Gentamicin (Life Technologies Europe B.V., Zug, Switzerland) and 10% heat-inactivated FBS (Sigma-Aldrich, Buchs, Switzerland). Sub-confluent cells were trypsinized using 0.25% Trypsin/EDTA (Life Technologies Europe B.V., Zug, Switzerland) and passaged at a ratio of 1:5-1:10 twice a week. Cells between passages 55 and 85 were used for this study.
(§7) Cells were seeded at a density of 20000 cells/well in a 7:3 ratio (Caco-2:HT29-MTX-E12) in Corning HTS Transwell-24 system PET membranes, 0.4 μM pore size, cell growth area 0.33 cm2/well (Corning BV, Amsterdam, Netherlands) and cultured as described above. Media was changed every second to third day.
For both sets of in vitro experiments, after cells being 13 days in culture, initial transepithelial electrical resistance (TEER) readings were obtained using an EVOM2 Voltohmmeter (EVOM, World Precision Instruments, Berlin) equipped with STX100 Electrodes. TEER values correlate with the tightness of the confluent monolayer (Srinivasan et al. 2015).
The background TEER (insert) was subtracted from total TEER (cell monolayer plus insert) to yield the monolayer resistance and then normalized to surface area by multiplying with the area of the insert (Srinivasan et al. 2015). The integrity of the monolayer was determined at basal level by measuring TEER. A TEER of 300 Ωcm2 was regarded as a tight monolayer (see results section). Afterwards, the cells were treated with sterile filtered fermentation supernatants or fermentation medium as a control (diluted 1:20 in growth media). After 24 h incubation the resistance across each cell monolayer was measured again and the percentage change in TEER compared to initial TEER for each insert was calculated to represent a healthy gut model. All TEER measurements were done by placing the plates containing the inserts on a 37° C. warming plate and were performed in the same duration.

[3] = system: Co-cultures of Caco-2 and HT29-MTX-E12 cells; experiment: Barrier integrity, leaky gut model, apical stressor Rhamnolipids; type: cell-based; details: vs corresponding control; for Lucifer yellow, apical induction of leaky gut cellular model: 48 h fermentation samples; for TEER, apical induction of leaky gut cellular model: 48 h minus 0 h fermentation samples
Procedure: Since ethanol is known to have antimicrobial effects, two blanks for each type of stock solution were included. As a source of the microbial community, a freshly prepared fecal suspension from the selected donor was added to the reactors. […] All tests, except the blanks, were performed in single repetition, resulting in 40 independent incubations, as specified in Table 1. Incubation conditions of the pre-screening experiment and the final experiment were 48 h at 37° C., under shaking (90 rpm) and anaerobic conditions. […] Effluent samples were collected from each fermentation flask before (0 h fermentation) and after fermentation (48 h fermentation), sterilized by filtering through 0.22 μm filters and used for short chain fatty acids (SCFA), quantification of immunological biomarkers and in vitro analysis in cell culture systems.
as §5, §6, §7
For both sets of in vitro experiments, the integrity of cell monolayers after the stressor test was evaluated by both TEER values and by measuring the transport of Lucifer yellow from apical to basolateral compartments (Leaky gut model). A prewarmed HBSS transport buffer composed of Hank's Balanced Salt Solution pH 7.4 with Ca2+ and Mg2+, containing 5.5 mM D-(+)-glucose, Sodium Bicarbonate, and supplemented with 4 mM L-glutamine, 20 mM HEPES (Life Technologies Europe B.V., Zug, Switzerland) was used for all permeability experiments. The inserts were rinsed twice with HBSS using a reservoir tray, 100 μl HBSS were then added to the apical site of the inserts and subsequently moved to new wells with fresh HBSS and allowed to equilibrate at 37° C. for 60 min in the incubator followed by TEER measurement to obtain baseline resistance readings.
Lucifer Yellow CH dilithium salt (Sigma-Aldrich, Buchs, Switzerland) was dissolved in HBSS at a final concentration of 100 μg/ml. Basolateral stressor EtOH (Merck, KgaA, Darmstadt, Germany) was diluted to 5% in HBSS. Apical Stressor Rhamnolipids R90 (AGAE Technologies, Corvallis, USA) was dissolved in HBSS containing Lucifer Yellow at a final concentration of 350 μg/ml. All solutions were prepared freshly each time.
The HBSS transport buffer from the basolateral chamber was aspirated first, then the HBSS from the apical chamber and replaced with Lucifer yellow solution. For the apical stressor test, Lucifer yellow solution containing 350 μg/ml Rhamnolipids or Lucifer yellow solution without stressor for the control wells was loaded into the apical compartment, blank HBSS was subsequently added to the basolateral chamber.

[4] = system: fecal microbial community; experiment: Microbiome composition by shotgun sequencing: alpha diversity (first set); type: cell-based, human; details: after 24 h fermentation, vs corresponding control
Procedure: as §1
(§2) For the first set of in vitro experiments, total DNA was extracted from all samples collected throughout the study using the QIAamp DNA stool minikit (Qiagen, Crawley, United Kingdom) according to the manufacturer's instructions, apart from addition of a bead-beating step and increasing the lysis temperature to 95° C. as described previously (McCormack et al., 2018).
(§3) After DNA isolation, DNA was quantified using the Qubit High Sensitivity DNA assay (Thermo Fisher). Whole metagenome libraries were then prepared using the Illumina Nextera XT kit (Illumina) in accordance with the manufacturer's instructions, with the following modifications: Firstly, tagmentation time was increased to 7 min and secondly, following incorporation of indices and Ampure purification of the products, the samples were each individually sized by running on an Agilent High Sensitivity Chip (Agilent) and quantified using the Qubit High Sensitivity DNA assay (Thermo Fisher) in accordance with Teagasc Sequencing Platform SOPs. The samples were then pooled equimolarly and sequenced on the Illumina NextSeq 500 with a NextSeq 500/550 v2 high-output reagent kit (300 cycles). All sequencing was done in the Teagasc sequencing facility in accordance with standard Illumina sequencing protocols.
(§4) Delivered raw FASTQ sequence files were quality checked as follows: poor quality and duplicate read removal, as well as trimming was implemented using a combination of SAM and Picard tools. Taxonomy was assigned to the reads using the Kraken software and functional analysis was performed with Super focus.

Bifidobacterium = experiment: Microbiome composition by shotgun sequencing: Bifidobacterium (first set); type: cell-based, human; details: after 24 h fermentation, vs corresponding control
Procedure: as §1, §2, §3, §4

[5] = system: genes involved in Acetyl-CoA fermentation to Butyrate pathway; experiment: Shotgun sequencing functional analysis: butyrate pathway genes (first set); type: cell-based, human; details: after 24 h fermentation, vs corresponding control
Procedure: as §1, §2, §3, §4

HT29 cells = experiment: HT29 cell culture, quantification of immunological biomarkers; type: cell-based; details: 5× dose; effluent from 24 h fermentation; vs corresponding control
Procedure: as §1, with “([…]), […]” for “(0 h fermentation) and after fermentation (48 h fermentation), sterilized by filtering through 0.22 μm filters and used for short chain fatty acids (SCFA), quantification of immunological biomarkers and in vitro analysis in”
For both sets of in vitro experiments, HT29 cells were obtained from American Type Culture Collection (Manassas, VA). Cells were cultured in DMEM supplemented with 10% fetal bovine serum (FBS), 50 units/ml penicillin, 50 μg/ml streptomycin, L-glutamine, and nonessential amino acids (Life Technologies Europe B.V., Zug, Switzerland). Cells were seeded into 12-well plates at 8×10^5 cells per well and used after 2 days of preculture. They were starved in DMEM containing 0.25% FBS for 18 h before treatment. Cells were treated for 24 hours with TNF-α at 100 ng/mL or fermentation supernatants which were sterile filtered and diluted 1:20 in DMEM containing 0.25% FBS. All treatments were done in triplicate. Consequently, cytokines, chemokines and interleukins were quantified in HT29 supernatants using the Luminex Technology (LiquiChip Workstation IS 200, Qiagen, Hilden, Germany) with Bio-Plex Pro Human Cytokine Panel kits (Bio-Rad, Hercules, CA) or with Luminex Screening Assay kits (R&D Systems, Inc., Minneapolis, MN), following the manufacturer's instructions. The data were acquired with the Luminex IS 2.3 software and evaluated with the LiquiChip Analyser software (Qiagen, Hilden, Germany).

[6] = system: fecal suspension from the selected donor; experiment: Gas production in closed colon incubations (first set); type: cell-based, human; details: after 48 h fermentation, vs corresponding control
Procedure: The colon incubations were performed in closed incubation systems. This allowed us to evaluate the accumulation of gasses in the headspace, which can be measured with a pressure meter. Gas production is a measure of microbial activity, and thus of the speed of fermentation of the potentially prebiotic substrates. It can be used as an indication for bloating and digestive wellbeing upon prebiotic consumption.
as §1
For both sets of in vitro experiments, colon incubations were performed in closed incubation systems as described above. This allowed to evaluate the accumulation of gasses in the headspace, which can be measured with a pressure meter. Gas production is a measure of microbial activity, and thus of the speed of fermentation of the potentially prebiotic substrates

| SMILES | butyrate production [1] | TEER, healthy gut cellular model ([2]; 0.2× dose) | Lucifer yellow, apical induction of leaky gut cellular model ([3]; 0.2× dose) | TEER, apical induction of leaky gut cellular model ([3]; 0.2× dose) | microbiome alpha diversity (Shannon diversity index) ([4]; 0.2× dose) | microbiome alpha diversity (Shannon diversity index) ([4]; 1× dose) | Bifidobacterium relative abundance (Bifidobacterium; 0.2× dose) | Bifidobacterium relative abundance (Bifidobacterium; 1× dose) | relative abundance of genes involved in Acetyl-CoA fermentation to Butyrate pathway ([5]; 0.2× dose) | relative abundance of genes involved in Acetyl-CoA fermentation to Butyrate pathway ([5]; 1× dose) | IL-8 production by HT29 cells (HT29 cells) | TEER, healthy gut cellular model ([2]; 1× dose) | Lucifer yellow, apical induction of leaky gut cellular model ([3]; 1× dose) | TEER, apical induction of leaky gut cellular model ([3]; 1× dose) | microbiome alpha diversity (Shannon diversity index) ([4]; 5× dose) | relative abundance of genes involved in Acetyl-CoA fermentation to Butyrate pathway ([5]; 5× dose) | gas production ([6]; 1× dose) | gas production ([6]; 5× dose) |
| --- | --- | --- | --- | --- | --- | --- | --- | --- | --- | --- | --- | --- | --- | --- | --- | --- | --- | --- |
| Cc1cc2nc3c(=O)[nH]c(=O)nc-3n(C[C@H](O)[C@H](O)[C@H](O)COP(=O)(O)O)c2cc1C [Vitamin B2-5-phosphate, Riboflavin-5-phosphate] | increase butyrate production | increase TEER | decrease Lucifer yellow | increase TEER | increase microbiome diversity | increase microbiome diversity | increase Bifidobacterium relative abundance | increase Bifidobacterium relative abundance | increase relative abundance | increase relative abundance | increase IL-8 production |  |  |  |  |  |  |  |
| O=C1O[C@H]([C@@H](O)CO)C(O)=C1O [Vitamin C, Ascorbic acid] |  |  | decrease Lucifer yellow | increase TEER |  |  |  | increase Bifidobacterium relative abundance |  |  |  | increase TEER | decrease Lucifer yellow | increase TEER | increase microbiome diversity | increase relative abundance | reduced gas production | reduced gas production |
